Assay results from the NIST ThermoML archive (doi:10.1016/j.jct.2012.03.003).
Numbers after ± are expanded uncertainties.

Assay: xn = mol fraction of the nth substance listed
Conditions: Liquid, Vibrating tube method

COc1cc2c(cc1O)CC1c3c(cc(O)c(OC)c3-2)CCN1C (stereo not given) [boldine] + CCCO
mass density (352.94 K, 17000 kPa, x1 = 0.0142): 793.21 ± 0.69 kg/m3 | mass density (352.94 K, 18000 kPa, x1 = 0.0018): 773.13 ± 0.95 kg/m3 | mass density (352.94 K, 18000 kPa, x1 = 0.0112): 789.5 ± 0.76 kg/m3 | mass density (352.94 K, 18000 kPa, x1 = 0.0142): 794.1 ± 0.69 kg/m3 | mass density (352.94 K, 19000 kPa, x1 = 0.0018): 774.01 ± 0.96 kg/m3 | mass density (352.94 K, 19000 kPa, x1 = 0.0112): 790.38 ± 0.76 kg/m3 | mass density (352.94 K, 19000 kPa, x1 = 0.0142): 794.97 ± 0.69 kg/m3 | mass density (352.94 K, 20000 kPa, x1 = 0.0018): 774.9 ± 0.96 kg/m3 | mass density (352.94 K, 20000 kPa, x1 = 0.0112): 791.19 ± 0.77 kg/m3 | mass density (352.94 K, 20000 kPa, x1 = 0.0142): 795.82 ± 0.7 kg/m3 | mass density (352.95 K, 1000 kPa, x1 = 0.0046): 762.42 ± 0.71 kg/m3 | mass density (352.95 K, 1000 kPa, x1 = 0.0077): 766.39 ± 0.67 kg/m3 | mass density (352.95 K, 2000 kPa, x1 = 0.0046): 763.47 ± 0.71 kg/m3 | mass density (352.95 K, 2000 kPa, x1 = 0.0077): 767.42 ± 0.67 kg/m3 | mass density (352.95 K, 3000 kPa, x1 = 0.0046): 764.53 ± 0.71 kg/m3 | mass density (352.95 K, 3000 kPa, x1 = 0.0077): 768.43 ± 0.68 kg/m3 | mass density (352.95 K, 4000 kPa, x1 = 0.0046): 765.57 ± 0.71 kg/m3 | mass density (352.95 K, 4000 kPa, x1 = 0.0077): 769.48 ± 0.67 kg/m3 | mass density (352.95 K, 5000 kPa, x1 = 0.0046): 766.6 ± 0.72 kg/m3 | mass density (352.95 K, 5000 kPa, x1 = 0.0077): 770.53 ± 0.68 kg/m3 | mass density (352.95 K, 6000 kPa, x1 = 0.0046): 767.63 ± 0.72 kg/m3 | mass density (352.95 K, 6000 kPa, x1 = 0.0077): 771.55 ± 0.68 kg/m3 | mass density (352.95 K, 7000 kPa, x1 = 0.0046): 768.64 ± 0.72 kg/m3 | mass density (352.95 K, 7000 kPa, x1 = 0.0077): 772.55 ± 0.68 kg/m3 | mass density (352.95 K, 8000 kPa, x1 = 0.0046): 769.68 ± 0.72 kg/m3 | mass density (352.95 K, 8000 kPa, x1 = 0.0077): 773.58 ± 0.68 kg/m3 | mass density (352.95 K, 9000 kPa, x1 = 0.0046): 770.67 ± 0.73 kg/m3 | mass density (352.95 K, 9000 kPa, x1 = 0.0077): 774.57 ± 0.69 kg/m3 | mass density (352.95 K, 10000 kPa, x1 = 0.0046): 771.67 ± 0.73 kg/m3 | mass density (352.95 K, 10000 kPa, x1 = 0.0077): 775.56 ± 0.69 kg/m3 | mass density (352.95 K, 11000 kPa, x1 = 0.0046): 772.65 ± 0.73 kg/m3 | mass density (352.95 K, 11000 kPa, x1 = 0.0077): 776.53 ± 0.69 kg/m3 | mass density (352.95 K, 12000 kPa, x1 = 0.0046): 773.64 ± 0.73 kg/m3 | mass density (352.95 K, 12000 kPa, x1 = 0.0077): 777.51 ± 0.7 kg/m3 | mass density (352.95 K, 13000 kPa, x1 = 0.0046): 774.6 ± 0.74 kg/m3 | mass density (352.95 K, 13000 kPa, x1 = 0.0077): 778.48 ± 0.7 kg/m3 | mass density (352.95 K, 14000 kPa, x1 = 0.0046): 775.56 ± 0.74 kg/m3 | mass density (352.95 K, 14000 kPa, x1 = 0.0077): 779.42 ± 0.7 kg/m3 | mass density (352.95 K, 15000 kPa, x1 = 0.0046): 776.52 ± 0.74 kg/m3 | mass density (352.95 K, 15000 kPa, x1 = 0.0077): 780.35 ± 0.71 kg/m3 | mass density (352.95 K, 16000 kPa, x1 = 0.0046): 777.42 ± 0.75 kg/m3 | mass density (352.95 K, 16000 kPa, x1 = 0.0077): 781.26 ± 0.71 kg/m3 | mass density (352.95 K, 17000 kPa, x1 = 0.0046): 778.33 ± 0.75 kg/m3 | mass density (352.95 K, 17000 kPa, x1 = 0.0077): 782.19 ± 0.71 kg/m3 | mass density (352.95 K, 18000 kPa, x1 = 0.0046): 779.23 ± 0.76 kg/m3 | mass density (352.95 K, 18000 kPa, x1 = 0.0077): 783.07 ± 0.72 kg/m3 | mass density (352.95 K, 19000 kPa, x1 = 0.0046): 780.13 ± 0.76 kg/m3 | mass density (352.95 K, 19000 kPa, x1 = 0.0077): 783.97 ± 0.72 kg/m3 | mass density (352.95 K, 20000 kPa, x1 = 0.0046): 780.98 ± 0.77 kg/m3 | mass density (352.95 K, 20000 kPa, x1 = 0.0077): 784.83 ± 0.72 kg/m3 | mass density (362.91 K, 1000 kPa, x1 = 0.0142): 768.06 ± 0.63 kg/m3 | mass density (362.91 K, 2000 kPa, x1 = 0.0142): 769.19 ± 0.63 kg/m3 | mass density (362.91 K, 3000 kPa, x1 = 0.0142): 770.27 ± 0.64 kg/m3 | mass density (362.91 K, 4000 kPa, x1 = 0.0142): 771.41 ± 0.64 kg/m3 | mass density (362.91 K, 5000 kPa, x1 = 0.0142): 772.43 ± 0.64 kg/m3 | mass density (362.91 K, 6000 kPa, x1 = 0.0142): 773.54 ± 0.64 kg/m3 | mass density (362.91 K, 7000 kPa, x1 = 0.0142): 774.62 ± 0.65 kg/m3 | mass density (362.91 K, 8000 kPa, x1 = 0.0142): 775.73 ± 0.65 kg/m3 | mass density (362.91 K, 9000 kPa, x1 = 0.0142): 776.73 ± 0.63 kg/m3 | mass density (362.91 K, 10000 kPa, x1 = 0.0142): 777.77 ± 0.66 kg/m3 | mass density (362.91 K, 11000 kPa, x1 = 0.0142): 778.78 ± 0.66 kg/m3 | mass density (362.91 K, 12000 kPa, x1 = 0.0142): 779.82 ± 0.67 kg/m3 | mass density (362.91 K, 13000 kPa, x1 = 0.0142): 780.81 ± 0.67 kg/m3 | mass density (362.91 K, 14000 kPa, x1 = 0.0142): 781.79 ± 0.67 kg/m3 | mass density (362.91 K, 15000 kPa, x1 = 0.0142): 782.77 ± 0.68 kg/m3 | mass density (362.91 K, 16000 kPa, x1 = 0.0142): 783.72 ± 0.68 kg/m3 | mass density (362.91 K, 17000 kPa, x1 = 0.0142): 784.68 ± 0.69 kg/m3 | mass density (362.91 K, 18000 kPa, x1 = 0.0142): 785.6 ± 0.69 kg/m3 | mass density (362.91 K, 19000 kPa, x1 = 0.0142): 786.52 ± 0.69 kg/m3 | mass density (362.91 K, 20000 kPa, x1 = 0.0142): 787.4 ± 0.7 kg/m3 | mass density (362.92 K, 1000 kPa, x1 = 0.0046): 752.84 ± 0.71 kg/m3 | mass density (362.92 K, 1000 kPa, x1 = 0.0077): 756.81 ± 0.67 kg/m3 | mass density (362.92 K, 2000 kPa, x1 = 0.0046): 753.97 ± 0.71 kg/m3 | mass density (362.92 K, 2000 kPa, x1 = 0.0077): 757.93 ± 0.68 kg/m3 | mass density (362.92 K, 3000 kPa, x1 = 0.0046): 755.11 ± 0.71 kg/m3
